Article PMC8433497, “DNA-encoded chemistry technology yields expedient access to SARS-CoV-2 M^pro inhibitors” (Proceedings of the National Academy of Sciences of the …, 2021)
Entries after “also recorded” stand apart in the source; their conditions may differ. Read-outs that look alike come from different tables or passages of the source.

Assays:
[1] = test system: SARS-CoV-2 main protease (M^pro); test: Protein thermal shift stability assay (thermofluor); format: binding; details: 1.5 μM protease, various compound concentrations, SYPRO Orange
Experimental: The dye SYPRO Orange (Thermo Fisher Scientific) was used to perform the protein thermal shift assay. The assay was set up on a 384-well Roche plate where the SARS-CoV-2 main protease at a concentration of 1.5 μM was incubated with the test compound at various concentrations and SYPRO Orange dye at 5× in a 10 μL reaction. The melting curve experiment and data analysis were run on a Roche Lightcycler 480 real-time PCR instrument.

HepG2 cells [2] = test: HepG2 cytotoxicity assay (XTT); format: cell-based; details: 100 μM, 24 h
Experimental: (§1) The HepG2 cells maintained in DMEM (containing 1 g/L glucose, 10% fetal bovine serum [FBS], and 1% penicillin/streptomycin) were seeded in a 12-well plate (a final density of 5 × 10^5 per well) for cell uptake assay and 96-well plate for cytotoxicity assay (a final density of 5 × 10^4 per well). The plate was incubated at 37 °C for 24 h.
(§2) The cells in 96-well plate were treated by CDD-1713 or CDD-1976 at the final concentrations of 0, 10, 20, 50, or 100 μM (n = 3 replicates per concentration level per drug). After 24-h incubation at 37 °C, the medium in the plate was decanted and 100 μL of Dulbecco’s modified Eagle’s medium (DMEM) (without phenol red) was added into each well. The cell variability was measured using XTT method. The absorbance at 475 nm was read with a Tecan M1000 pro machine, with a reference wavelength of 660 nm. The reading was normalized by vehicle with final 0.5% dimethyl sulfoxide (DMSO) for each drug.

[3] = HepG2 cytotoxicity assay (XTT); format: cell-based; details: human, 100 µM group, XTT, normalized to DMSO, read-out: HepG2 cell viability
Experimental: as §1, §2

[4] = Metabolic stability in human liver microsomes; format: in vitro ADME
Experimental: (§3) The samples were collected at specific time points, 0, 30, and 60 min, in duplicate. The reactions were terminated by adding an equivalent volume of ice-cold methanol and vortexed. […] Three microliters […] of the supernatant was analyzed by UHPLC-Q Exactive Orbitrap MS (Thermo Fisher Scientific) equipped with 50-mm × 4.6-mm column (XDB C-18; Agilent Technologies). The column temperature was maintained at 40 °C. The flow rate was at 0.3 mL/min with a 30% mobile phase (acetonitrile containing 0.1% formic acid). Q Exactive MS was operated in positive mode with electrospray ionization. Ultrapure nitrogen was applied as the sheath (45 arbitrary units), auxiliary (10 arbitrary units), sweep (1.0 arbitrary unit), and the collision gas. […] Mass Spectrometry (MS) data were acquired from 80 to 1,200 Da in profile mode.

HepG2 cells [5] = test: HepG2 cell uptake assay; format: in vitro ADME; details: 10 μM, 2 h, 37 °C
Experimental: as §1
The cells in 12-well plate were treated with CDD-1713 or CDD-1976 (final concentration: 10 μM). The plate was incubated at 37 °C for another 2 h. The medium in the plate was decanted and the cells were rinsed with 1 mL of 1× DPBS three times, then 0.5 mL of 0.25% trypsin was added to each well and incubated for 3.5 min (at 37 °C). One milliliter of complete medium was added to each well to quench the reaction. After spinning at 350 × g for 5 min, the cell pellet was reconstituted in MeOH/H2O (vol/vol 1/1) and CDD-1713 or CDD-1976 was extracted from 100 μL of the resulting mixture with 100 μL of ice-cold methanol. The mixtures were centrifuged at rcf 15,000 for 15 min. Three microliters of the supernatant was analyzed by UHPLC-Q Exactive Orbitrap MS (Thermo Fisher Scientific) equipped with a 50-mm × 4.6-mm column (XDB C-18; Agilent Technologies). The column temperature was set at 40 °C. Ultrapure nitrogen was applied as the sheath (45 arbitrary units), auxiliary (10 arbitrary units), sweep (1.0 arbitrary unit), and the collision gas. […]

[6] = Plasma stability assay, mouse plasma; format: in vitro ADME; details: 10 µM, 37 °C, after 2-h incubation
Experimental: (§4) Compound CDD-1713 and CDD-1976 were incubated in human and mouse plasma, respectively, at a concentration of 10 µM in duplicate (n = 2) at 37 °C. At time points of 0, 30, 60, and 120 min, 15 µL of sample were taken out and the reactions terminated by adding 75 µL of ice-cold methanol. The reaction mixtures were then vortexed for 30 s and centrifuged at rcf 15,000 for 15 min. Following centrifugation, 3 μL of the supernatant was analyzed using UHPLC-Q Exactive Orbitrap MS. The percentage of test compound remaining at the individual time points relative to the 0-min sample was then determined.

[7] = Metabolic stability in mouse liver microsomes; format: in vitro ADME
Experimental: as §3

SARS-CoV-2 M^pro-His6 = SARS-CoV-2 M^pro-His6 (Severe acute respiratory syndrome coronavirus 2, UniProt P0DTD1); test: M^pro-His6 enzyme inhibition assay, fluorescent peptide reporter; format: biochemical
[8] = test system: SARS-CoV-2 (USA_WA1/2020 isolate); test: RTCA assay for in vitro inhibition of SARS-CoV-2 replication in VERO E6 cells; format: cell-based; details: live SARS-CoV-2, 75 h
renin = target: T1, renin (Homo sapiens, UniProt P00797); test: Renin assay; format: biochemical; details: best off-target inhibition observed; read-out: estimated Kiapp, renin
T1 construct: purchased BPS Bioscience 80211
T1 sequence (P00797 67-406): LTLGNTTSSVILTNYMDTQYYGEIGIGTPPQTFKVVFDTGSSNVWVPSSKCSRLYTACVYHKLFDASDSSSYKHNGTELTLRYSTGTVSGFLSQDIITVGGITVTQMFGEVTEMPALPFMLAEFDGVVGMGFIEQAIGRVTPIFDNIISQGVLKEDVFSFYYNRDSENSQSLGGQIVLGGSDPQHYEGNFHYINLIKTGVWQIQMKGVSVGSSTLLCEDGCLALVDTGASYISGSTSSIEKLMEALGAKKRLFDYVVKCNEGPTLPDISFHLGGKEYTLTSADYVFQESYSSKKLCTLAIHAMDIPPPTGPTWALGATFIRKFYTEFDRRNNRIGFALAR
Experimental: Renin assay: A kit from BPS Bioscience (80211) was used with adjustments to the manufacturer’s protocol as follows. The reaction was run at RT in black 96 half-area plates in a total reaction volume of 50 μL containing 0.01% Tween-20. Instead of measuring endpoints at 30 min the increase in fluorescence (Ex 490 nm, Em 520 nm) per second (RFU/s) was obtained from linear progress curves over 10 min. Fractional activities were calculated from reactions with no inhibitors. Aliskiren was used as a positive control.

[9] = Plasma stability assay, human plasma; format: in vitro ADME; details: 10 µM, 37 °C, after 2-h incubation
Experimental: as §4

In the case of `COc1cc(-c2cccc3[nH]ncc23)cc(C=O)c1OCC(=O)N(C)C` [CDD-1713], the “stabilization of M^pro (temperature shift)” value [1] is reported as “stabilized; also recorded: concentration-dependent stabilization”, the “cytotoxicity in HepG2 cells (in words)” value (HepG2 cells [2]) is reported as “no obvious cytotoxicity” and the viability at 24 h, 100 µM [3] is reported as > 80%. The “metabolic stability in human liver microsomes (in words)” value [4] was “metabolically labile”, the half-life at 2 μM ([4]; 0.5 mg protein/ml, 2.0 uM compound, 1.0 mM NADPH, read-out: HLM t1/2) was 15.3 min and the “cell permeability in uptake assay of HepG2 cells” value (HepG2 cells [5]) was “moderate cell permeability”. The “compound remained in mouse plasma” value [6] was 80%, the “metabolic stability in mouse liver microsomes (in words)” value [7] was “metabolically labile” and the half-life at 2 μM ([7]; 0.5 mg protein/ml, 2.0 uM compound, 1.0 mM NADPH, read-out: MLM t1/2) was 8.4 min. It also gave a Ki (SARS-CoV-2 M^pro-His6; 25 nM enzyme, 15 µM fluorescent peptide, Morrison equation, inactive = less than 90% inhibition at 25 µM, read-out: Ki against M^pro (Fig. 2; Fig. 2B M^pro-His-tag)) of 45 ± 3 nM, a Ki (SARS-CoV-2 M^pro-His6; Table S1, 25 nM enzyme, 15 µM fluorescent peptide, Morrison equation, SE from triplicates, read-out: Mpro-His Ki) of 45 ± 3 nM and a Ki (SARS-CoV-2 M^pro-His6; read-out: Ki against M^pro (Fig. 2; Fig. 2B M^pro-His-tag)) of 45 nM. For the same compound, the “effect on SARS-CoV-2 induced cell death (in words)” value [8] was “reduced cell death in a dose-dependent manner”, the “IC50, SARS-CoV-2 induced cell death (normalized cell index, RTCA)” value ([8]; duplicates) was 5190 nM and the Ki (renin) was 53000 nM. For the same compound, the “compound remained in human plasma” value [9] was 80%.
